Results as given in patent US9017692B2, “Antimicrobial agent, bacterial strain, biosynthesis, and methods of use” (priority 2011, dated 2015).

Legend:
[1] = test system: C. difficile CL148; assay: Spot-on-lawn antimicrobial activity; type: cell-based, Clostridium difficile; settings: BHIYE
Procedure: (§1) Spot-on-lawn method [He, Z., et al., Appl. Environ. Microbiol., (2007) 73:168-178] was used for the bioassay of antimicrobial activity. Bacterial indicators were incubated at 37° C. for 24 h, except Pseudomonas putida, Clostridium difficile and methycillin resistant Staphylococcus aureus which were incubated for 48 h (Table 1). The indicator overlay was prepared by pouring 10 ml soft agar (seeded with 10 μL indicator culture) onto tryptose agar as basal medium in a petri dish. Purified antimicrobials were two-fold serially diluted and aliquots (10 μL each) were spotted onto the soft agar. The plates were incubated overnight and inspected for the presence of growth inhibition zones. Antimicrobial activity was expressed in arbitrary units (AU)/mL; this value is the reciprocal of the highest dilution displaying a zone of inhibition corresponding to 1 mL of the non-diluted antimicrobial preparation.
(§2) Purified paenibacterin was used for the antimicrobial spectrum test. Microorganisms tested for sensitivity to this compound included pathogenic (e.g., Salmonella Typhimurium, Escherichia coli O157:H7, Listeria monocytogenes, and Staphylococcus aureus) and non-pathogenic (e.g., Escherichia coli K-12, Pseudomonas putida, and Enterococcus faecalis) bacteria (Table 1).

[2] = test system: DR-MRSA from MW2 SP SAU.1616; assay: microbe, parasite or virus in culture; settings: SAU.1616, DR-MRSA from MW2 SP; NBS 96-well plates
Procedure: (§3) The activity of paenibacterin against several strains of Gram-positive and Gram-negative foodborne pathogens is summarized in Table 10. The data is reported as minimum inhibitory concentrations (MIC) as an average of three replicates for paenibacterin against the various listed bacterial strains. […] MICs were determined according to the CLSI broth microdilution method (see, Clinical and Laboratory Standards Institute (CLSI). 2009. Methods for dilution antimicrobial susceptibility tests for bacteria that grow aerobically; approved standard. […]. CLSI, Wayne, Pa.). Briefly, HPLC-purified paenibacterin was dissolved in methanol and diluted to appropriate concentration with cation-adjusted Mueller-Hinton II broth (Difco). Aliquots (25 μl) of serially-diluted paenibacterin was dispensed into wells of a 96-well plate; an equal amount of 1/10 diluted overnight bacterial culture was added to wells. Plates were incubated at 35° C. for 24 h. Cell growth after incubation was examined and determined using a microtiter plate reader at 600 nm. Concentration of paenibacterin is determined based on a molecular weight of 1604 Da.
(§4) The activity of paenibacterin was further tested against clinical isolates of the following Gram-positive bacteria: methicillin-sensitive Staphylococcus aureus (MSSA), methicillin-resistant S. aureus (MRSA), vancomycin-sensitive Enterococcus faecalis, vancomycin-resistant E. faecalis (VRE), Streptococcus pneumoniae, and laboratory derived daptomycin-resistant (DR) MSSA, MRSA, and VRE strains. The MICs were determined using the above described CLSI broth microdilution method, in which the method was performed with non-binding surface coated (NBS) 96-well plates.

[3] = test system: DR-MSSA from SAU.42 SAU.278; assay: microbe, parasite or virus in culture; settings: SAU.278, DR-MSSA from SAU.42; NBS 96-well plates
Procedure: as §3, §4

[4] = test system: WT ATCC 49619 SPN.31; assay: microbe, parasite or virus in culture; settings: SPN.31, WT ATCC 49619; NBS 96-well plates
Procedure: as §3, §4

[5] = test system: DR-VRE from EFS.807 EFS.2731; assay: microbe, parasite or virus in culture; settings: EFS.2731, DR-VRE from EFS.807; NBS 96-well plates
Procedure: as §3, §4

[6] = test system: DS-VRE ATCC 700802 EFS.807; assay: microbe, parasite or virus in culture; settings: EFS.807, DS-VRE ATCC 700802; NBS 96-well plates
Procedure: as §3, §4

[7] = test system: WT ATCC 29212 EFS.43; assay: microbe, parasite or virus in culture; settings: EFS.43, WT ATCC 29212; NBS 96-well plates
Procedure: as §3, §4

[8] = test system: Staphylococcus aureus; assay: MIC, summary of Table 13; type: cell-based; settings: Staphylococcus aureus strains of Table 13; NBS plates
Procedure: as §3, §4

[9] = test system: Streptococcus pneumoniae; assay: MIC, summary of Table 13; type: cell-based; settings: NBS plates
Procedure: as §3, §4

[10] = test system: Enterococcus faecalis; assay: MIC, summary of Table 13; type: cell-based; settings: Enterococcus faecalis strains of Table 13; NBS plates
Procedure: as §3, §4

[11] = test system: B. cereus ATCC 11178; assay: Spot-on-lawn antimicrobial activity; type: cell-based, Bacillus cereus; settings: TSBYE
Procedure: as §1, §2

[12] = test system: S. aureus (methycillin-resistant); assay: Spot-on-lawn antimicrobial activity; type: cell-based, Staphylococcus aureus; settings: TSBYE
Procedure: as §1, §2

[13] = test system: ABA.2315; assay: MIC, CLSI broth microdilution, Gram-negative clinical isolates; type: cell-based, Acinetobacter baumannii
Procedure: (§5) Plates were incubated at 35° C. for 24 h.
(§6) The activity of paenibacterin was also tested against clinical isolates of the following Gram-negative bacterial strains: four strains of the species Pseudomonas aeruginosa (PAE), three strains of the species Acinetobacter baumannii (ABA), two strains of the species Escherichia coli (ECO), and four strains of the species Klebsiella pneumoniae (KPN). Particularly, the strains of Gram-negative bacteria included polymyxin B-resistant (PMB-R) and polymyxin B-sensitive (PMB-S) strains of each above listed species. The MICs were determined using the above described CLSI broth microdilution method, in which the method was performed with both non-binding surface coated (NBS) and polystyrene (PS) 96-well plates (Tables 11 and 12, respectively). The MICs were generally lower in the NBS 96-well plates as compared to the PS 96-well plates.

[14] = test system: ABA.2232; assay: as above; type: cell-based, Acinetobacter baumannii
Procedure: as §5, §6

[15] = test system: ABA.1570; assay: as above; type: cell-based, Acinetobacter baumannii
Procedure: as §5, §6

[16] = test system: L. monocytogenes; assay: Antimicrobial spectrum test; type: cell-based, Listeria monocytogenes; settings: gram-positive pathogens such as L. monocytogenes
Procedure: as §1, §2

[17] = test system: Yersinia enterocolitica; assay: MIC, CLSI broth microdilution, foodborne pathogens; type: cell-based
Procedure: as §5

[18] = test system: Listeria monocytogenes Scott A; assay: MIC, CLSI broth microdilution, foodborne pathogens; type: cell-based
Procedure: as §5

[19] = test system: Escherichia coli O157:H7 EDL933; assay: MIC, CLSI broth microdilution, foodborne pathogens; type: cell-based
Procedure: as §5

[20] = test system: Bacillus cereus ATCC14579; assay: MIC, CLSI broth microdilution, foodborne pathogens; type: cell-based
Procedure: as §5

[21] = based on molecular weight of 1604 Da

paenibacterin
Antimicrobial activity (AU/ml) [1]: 0 AU/ml | Antimicrobial activity (AU/ml) ([1]; listed as Paenibacterin): no activity | Minimum inhibitory concentration (MIC) [2]: 32 µg/mL | Minimum inhibitory concentration (MIC) [3]: 64 µg/mL | Minimum inhibitory concentration (MIC) [4]: 64 µg/mL | Minimum inhibitory concentration (MIC) [5]: 8 µg/mL | Minimum inhibitory concentration (MIC) [6]: 64 µg/mL | Minimum inhibitory concentration (MIC) [7]: 32 to 64 µg/mL | MIC [8]: 32 to 64 µg/mL | MIC [9]: 32 to 64 µg/mL | MIC [10]: 32 to 64 µg/mL | Antimicrobial activity (AU/ml) [11]: 200 AU/ml | Antimicrobial activity (AU/ml) [12]: 100 AU/ml | Minimum inhibitory concentration (MIC) ([13]; NBS 96-well plates): 2 µg/mL | Minimum inhibitory concentration (MIC) ([13]; PS 96-well plates): 32 µg/mL | Minimum inhibitory concentration (MIC) ([14]; NBS 96-well plates): 2 µg/mL | Minimum inhibitory concentration (MIC) ([14]; PS 96-well plates): 32 µg/mL | Minimum inhibitory concentration (MIC) ([15]; NBS 96-well plates): 2 µg/mL | Minimum inhibitory concentration (MIC) ([15]; PS 96-well plates): 32 µg/mL | Antimicrobial activity (in words) [16]: good activity | Minimum inhibitory concentration (MIC) Average ([17]; average of three replicates): 3.26 µg/mL | Minimum inhibitory concentration (MIC) Average [17, 21]: 2.03 µM | Minimum inhibitory concentration (MIC) Average ([18]; average of three replicates): 1.95 µg/mL | Minimum inhibitory concentration (MIC) Average [18, 21]: 1.22 µM | Minimum inhibitory concentration (MIC) Average ([19]; average of three replicates): 7.81 µg/mL | Minimum inhibitory concentration (MIC) Average [19, 21]: 4.87 µM | Minimum inhibitory concentration (MIC) Average ([20]; average of three replicates): 15.6 µg/mL | Minimum inhibitory concentration (MIC) Average [20, 21]: 9.74 µM
